Test results as given in ChEMBL document CHEMBL6074678, “Selectively Antagonizing the NOD1-Mediated Inflammatory Signaling Pathway Mitigates the Gastric Inflammation Induced by Helicobacter pylori Infection” (J Med Chem, 2024).

Key:
[1] = target: T1, Nucleotide-binding oligomerization domain-containing protein 1 (Homo sapiens, UniProt Q9Y239); experiment: Antagonist activity at human NOD1 expressed in HEK-Blue cells assessed as decrease in SEAP secretion incubated for 3 hrs followed by C12-iE-DAP stimulation for 20 hrs by spectrophotometry; format: cell-based, HEK-Blue hNOD1
T1 sequence (Q9Y239 whole entry): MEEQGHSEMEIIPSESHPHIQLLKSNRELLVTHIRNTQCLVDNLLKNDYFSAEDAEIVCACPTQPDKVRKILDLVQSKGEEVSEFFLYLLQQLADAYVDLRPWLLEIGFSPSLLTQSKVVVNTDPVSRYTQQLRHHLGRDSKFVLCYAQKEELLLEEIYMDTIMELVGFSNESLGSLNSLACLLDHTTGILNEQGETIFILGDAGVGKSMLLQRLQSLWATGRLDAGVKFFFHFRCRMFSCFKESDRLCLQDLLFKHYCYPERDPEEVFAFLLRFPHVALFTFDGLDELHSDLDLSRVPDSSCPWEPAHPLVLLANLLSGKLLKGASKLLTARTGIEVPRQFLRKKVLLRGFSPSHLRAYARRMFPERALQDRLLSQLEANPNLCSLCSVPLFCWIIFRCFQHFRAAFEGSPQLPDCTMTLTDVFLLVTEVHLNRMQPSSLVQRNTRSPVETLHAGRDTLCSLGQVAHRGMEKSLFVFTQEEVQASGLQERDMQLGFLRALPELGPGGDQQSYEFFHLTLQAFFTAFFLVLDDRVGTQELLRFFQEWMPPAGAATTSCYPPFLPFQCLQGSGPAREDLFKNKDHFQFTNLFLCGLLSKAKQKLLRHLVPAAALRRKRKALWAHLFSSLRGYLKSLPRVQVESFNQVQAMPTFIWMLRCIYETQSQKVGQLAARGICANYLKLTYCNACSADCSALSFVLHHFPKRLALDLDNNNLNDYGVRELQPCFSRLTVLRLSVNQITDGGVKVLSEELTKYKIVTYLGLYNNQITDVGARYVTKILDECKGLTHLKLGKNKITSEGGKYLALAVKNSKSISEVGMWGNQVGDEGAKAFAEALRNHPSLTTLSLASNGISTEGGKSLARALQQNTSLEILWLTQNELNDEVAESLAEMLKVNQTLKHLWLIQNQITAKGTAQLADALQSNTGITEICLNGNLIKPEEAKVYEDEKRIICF

[2] = target: T2, Nucleotide-binding oligomerization domain-containing protein 1 (Mus musculus, UniProt Q8BHB0); experiment: Antagonist activity at mouse NOD1 expressed in HEK-Blue cells assessed as decrease in SEAP secretion incubated for 3 hrs followed by C12-iE-DAP stimulation for 20 hrs by spectrophotometry; format: cell-based, HEK-Blue mNOD1
T2 sequence (Q8BHB0 whole entry): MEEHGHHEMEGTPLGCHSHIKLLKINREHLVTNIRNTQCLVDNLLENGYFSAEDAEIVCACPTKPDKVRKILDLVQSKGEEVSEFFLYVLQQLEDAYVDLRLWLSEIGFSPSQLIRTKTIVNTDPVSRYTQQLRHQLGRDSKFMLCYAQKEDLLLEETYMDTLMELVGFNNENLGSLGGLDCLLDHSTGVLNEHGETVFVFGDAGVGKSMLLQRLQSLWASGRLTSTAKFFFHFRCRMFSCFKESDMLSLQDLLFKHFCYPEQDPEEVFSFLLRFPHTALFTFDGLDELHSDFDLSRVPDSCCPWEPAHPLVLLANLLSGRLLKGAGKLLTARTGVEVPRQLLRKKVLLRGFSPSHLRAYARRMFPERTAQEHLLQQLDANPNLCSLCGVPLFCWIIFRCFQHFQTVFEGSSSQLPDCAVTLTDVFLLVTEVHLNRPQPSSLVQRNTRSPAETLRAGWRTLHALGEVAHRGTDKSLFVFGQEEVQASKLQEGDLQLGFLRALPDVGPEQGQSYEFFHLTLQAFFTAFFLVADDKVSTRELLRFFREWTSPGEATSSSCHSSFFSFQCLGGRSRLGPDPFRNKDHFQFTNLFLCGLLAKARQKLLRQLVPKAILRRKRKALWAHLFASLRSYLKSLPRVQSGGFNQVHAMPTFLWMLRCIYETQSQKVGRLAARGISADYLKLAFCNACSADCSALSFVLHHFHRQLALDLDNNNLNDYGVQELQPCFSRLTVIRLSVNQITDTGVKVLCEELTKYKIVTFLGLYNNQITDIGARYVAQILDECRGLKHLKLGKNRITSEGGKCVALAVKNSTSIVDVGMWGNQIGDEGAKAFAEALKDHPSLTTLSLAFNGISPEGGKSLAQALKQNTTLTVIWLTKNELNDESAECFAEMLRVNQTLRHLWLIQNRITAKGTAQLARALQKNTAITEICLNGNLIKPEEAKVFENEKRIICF

[3] = target: T3, Nucleotide-binding oligomerization domain-containing protein 1 (Mus musculus) (UniProt Q8BHB0); experiment: Antagonist activity at mouse NOD1 expressed in HEK-Blue cells assessed as decrease in SEAP secretion at 5 uM incubated for 3 hrs followed by C12-iE-DAP stimulation for 20 hrs by spectrophotometry relative to control; format: cell-based
T3 sequence (whole entry): T2 sequence (Q8BHB0 whole entry)

[4] = target: T3, Nucleotide-binding oligomerization domain-containing protein 1 (Mus musculus); experiment: Antagonist activity at mouse NOD1 expressed in HEK-Blue cells assessed as decrease in SEAP secretion at 1 uM incubated for 3 hrs followed by C12-iE-DAP stimulation for 20 hrs by spectrophotometry relative to control; format: cell-based
[5] = HEK-Blue mNOD1, filed as antagonist, time 23.0 hrs

Question: What does the source list for C=CC(=O)Nc1nc2ccc(Cl)cc2c(=O)n1-c1ccc(Cl)c(NS(=O)(=O)c2ccccc2F)c1?
Answer: IC50 [1]: 0.027 µM; IC50 [2]: 7.21 µM; inhibition [3, 5]: 53.3%

Question: What does the source list for O=c1c2cc(C(F)(F)F)ccc2nc(Cl)n1-c1ccc(Cl)c(NS(=O)(=O)c2c(F)cccc2F)c1?
Answer: inhibition [4, 5]: 65.3%; IC50 [2]: 0.404 µM

Question: What does the source list for O=c1c2cc(Cl)ccc2nc(SCCOc2ccc(F)cc2)n1-c1ccc(Cl)c(NS(=O)(=O)c2ccccc2F)c1?
Answer: IC50 [1]: 0.746 µM; inhibition ([3]; HEK-Blue mNOD1, time 23.0 hrs): < 10%

Question: How did the inhibition [3, 5] turn out when NC(=O)c1nc2ccc(Cl)cc2c(=O)n1-c1ccc(Cl)c(NS(=O)(=O)c2ccccc2F)c1 was run?
Answer: The inhibition was 48.2%.

Question: With Cc1nc2ccc(Cl)cc2c(=O)n1-c1ccc(Cl)c(N)c1 as the compound, how does the inhibition ([3]; HEK-Blue mNOD1, time 23.0 hrs) read?
Answer: The inhibition was under 10%.

Question: How did the IC50 [2] turn out when O=c1c2cc(Cl)ncc2nc(Cl)n1-c1ccc(Cl)c(NS(=O)(=O)c2cccnc2)c1 was run?
Answer: The IC50 was 0.381 µM.

Question: Which inhibition ([4]; HEK-Blue mNOD1, time 23.0 hrs) does the source give for O=c1c2cc(-c3cccc(Cl)c3)ccc2nc(Cl)n1-c1ccc(Cl)c(NS(=O)(=O)c2ccccc2F)c1 here?
Answer: The inhibition was 15.6%.

Question: With O=c1c2cc([N+](=O)[O-])ccc2nc(Cl)n1-c1ccc(Cl)c(NS(=O)(=O)c2ccccc2F)c1 as the compound, how does the IC50 [1] read?
Answer: Its IC50 is 0.0091 µM.

Question: What about the inhibition [4, 5] of the same compound?
Answer: Its inhibition is 52.1%.

Question: What about the IC50 [2] of the same compound?
Answer: Its IC50 is 0.86 µM.

Question: How did the inhibition ([4]; HEK-Blue mNOD1, time 23.0 hrs) turn out when O=c1c2ccncc2nc(C(F)F)n1-c1ccc(Cl)c(NS(=O)(=O)c2ccccc2F)c1 was run?
Answer: Its inhibition is 19.1%.

Question: How did the inhibition ([4]; HEK-Blue mNOD1, time 23.0 hrs) turn out when COc1ccc2nc(Cl)n(-c3ccc(Cl)c(NS(=O)(=O)c4ccccc4F)c3)c(=O)c2c1 was run?
Answer: Its inhibition is under 10%.

Question: With Cn1cc(S(=O)(=O)Nc2cc(-n3c(Cl)nc4cnc(Cl)cc4c3=O)ccc2Cl)cn1 as the compound, how does the IC50 [1] read?
Answer: Its IC50 is 0.0031 µM.

Question: And the inhibition [4, 5]?
Answer: The inhibition was 77.6%.

Question: And the IC50 [2]?
Answer: The IC50 was 0.267 µM.

Question: Which inhibition ([3]; HEK-Blue mNOD1, time 23.0 hrs) does the source give for Cc1nc2ccc(Cl)cc2c(=O)n1-c1ccc(Cl)c(S(=O)(=O)Nc2ccccc2F)c1 here?
Answer: The inhibition was 21.1%.

Question: For CC(C)NC(=O)CSc1nc2ccc(Cl)cc2c(=O)n1-c1ccc(Cl)c(NS(=O)(=O)c2ccccc2F)c1, which IC50 [1] is on record?
Answer: The IC50 was 0.025 µM.

Question: And the inhibition ([3]; HEK-Blue mNOD1, time 23.0 hrs)?
Answer: The inhibition was under 10%.

Question: With Nc1nc2ccc(Cl)cc2c(=O)n1-c1ccc(Cl)c(NS(=O)(=O)c2ccccc2F)c1 as the compound, how does the IC50 [1] read?
Answer: Its IC50 is 0.044 µM.

Question: What about the inhibition ([3]; HEK-Blue mNOD1, time 23.0 hrs) of the same compound?
Answer: The inhibition was 27.3%.

Question: How did the inhibition ([4]; HEK-Blue mNOD1, time 23.0 hrs) turn out when O=c1c2cc(OC(F)(F)F)ccc2nc(Cl)n1-c1ccc(Cl)c(NS(=O)(=O)c2c(F)cccc2F)c1 was run?
Answer: The inhibition was 36.5%.

Question: What about the IC50 [2] of the same compound?
Answer: Its IC50 is 2.65 µM.

Question: With Cc1nc2ccc(Cl)cc2c(=O)n1-c1ccc(Cl)c(NC(=O)c2ccccc2F)c1 as the compound, how does the inhibition ([3]; HEK-Blue mNOD1, time 23.0 hrs) read?
Answer: The inhibition was under 10%.

Question: O=c1c2nc(Cl)cnc2nc(Cl)n1-c1ccc(Cl)c(NS(=O)(=O)c2ccccc2F)c1 was tested. Which IC50 [2] did it give?
Answer: Its IC50 is 1.23 µM.

Question: Cc1nc2ccc(Cl)cc2c(=O)n1-c1ccc(Cl)c(C(=O)N2Cc3ccccc3S2(=O)=O)c1 was tested. Which inhibition ([3]; HEK-Blue mNOD1, time 23.0 hrs) did it give?
Answer: Its inhibition is under 10%.

Question: O=c1c2cc(Cl)ncc2nc(Cl)n1-c1ccc(Cl)c(NS(=O)(=O)c2ccc3ncsc3c2)c1 was tested. Which inhibition [4, 5] did it give?
Answer: Its inhibition is 85.7%.

Question: And the IC50 [2]?
Answer: Its IC50 is 0.132 µM.

Question: What does the source list for O=c1c2cc(Cl)ncc2nc(Cl)n1-c1ccc(Cl)c(NS(=O)(=O)c2c(F)cccc2F)c1?
Answer: IC50 [1]: 0.0013 µM; inhibition [4, 5]: 87.5%; IC50 [2]: 0.067 µM

Question: For O=c1c2ccncc2nc(Cl)n1-c1ccc(Cl)c(NS(=O)(=O)c2ccc(F)cc2F)c1, which inhibition [4, 5] is on record?
Answer: The inhibition was 80.5%.

Question: What about the IC50 [2] of the same compound?
Answer: Its IC50 is 0.193 µM.

Question: COc1cc2nc(Cl)n(-c3ccc(Cl)c(NS(=O)(=O)c4ccccc4F)c3)c(=O)c2cc1Cl was tested. Which inhibition ([4]; HEK-Blue mNOD1, time 23.0 hrs) did it give?
Answer: The inhibition was 39.3%.

Question: For O=c1c2ccncc2nc(Cl)n1-c1ccc(Cl)c(NS(=O)(=O)c2cc(F)c(F)cc2F)c1, which IC50 [1] is on record?
Answer: Its IC50 is 0.0075 µM.

Question: And the inhibition [4, 5]?
Answer: The inhibition was 81.8%.

Question: And the IC50 [2]?
Answer: The IC50 was 0.159 µM.

Question: For O=c1c2ccncc2nc(Cl)n1-c1ccc(Cl)c(NS(=O)(=O)c2ccc([N+](=O)[O-])cc2F)c1, which IC50 [2] is on record?
Answer: The IC50 was 0.133 µM.

Question: Which results are given for N#Cc1ccccc1S(=O)(=O)Nc1cc(-n2c(Cl)nc3cnc(Cl)cc3c2=O)ccc1Cl?
Answer: IC50 [1]: 0.0012 µM; inhibition [4, 5]: 86.3%; IC50 [2]: 0.121 µM
